The values below come from patent publication US20110070293A1, “Methods for the Preparation of Liposomes Comprising Docetaxel” (priority 2009, published 2011).

Data set [1] is described as follows: Solubilization of docetaxel in fatty acid, fatty acid salt or oleate liposome media. The class given is physicochemical. As to conditions: for solubility: aqueous with cosolvent or surfactant or cyclodextrin. As to the method:
(§1) Docetaxel (5 mg) was added to 31 μL of oleic acid and mixed using a VORTEX®. Ethanolamine (6 μL) was subsequently added and mixed using a VORTEX®. After mixing, the sample was dispersed in 963 μL of water for injection. Docetaxel was soluble and the formulation clear at 5 mg/mL. Docetaxel remained soluble, and the formulation was stable, upon dilution (1:10 in 2.5% glycerol) up to 24 hours as analyzed by a reverse phase high performance liquid chromatography method.
(§2) Docetaxel (5.0 mg) was added to 1 mL of 0.05 M sodium oleate and mixed using a VORTEX®. Docetaxel was soluble and the formulation clear at 5.0 mg/mL. Docetaxel remained soluble, and the formulation was stable, upon dilution (1:10 in 2.5% glycerol) up to 24 hours as analyzed by a reverse phase high performance liquid chromatography method.
(§3) Docetaxel (2 mg) was added to 1 mL of 1 M sodium caprylate and mixed by a VORTEX®. Docetaxel was soluble and the formulation clear at 2 mg/mL. Docetaxel remained soluble, and the formulation was stable, upon dilution (1:2 2.5% glycerol) up to 24 hours as analyzed by a reverse phase high performance liquid chromatography method.
(§4) Docetaxel (7.0 mg) was added to 1 mL of 1 M sodium linoleate and mixed using a VORTEX®. Docetaxel was soluble and the formulation clear at 7.0 mg/mL. Docetaxel remained soluble, and the formulation was stable, upon dilution (1:10 2.5% glycerol) up to 24 hours as analyzed by a reverse phase high performance liquid chromatography method.
(§5) Docetaxel (5 mg) was added to 1 mL of pre-made liposome containing 2 mM sodium oleate and 6% soy phosphatidyl choline, 10% trehalose, pH adjusted to 5-7 using Acetic acid, mixed using a VORTEX®, and microfluidized using a Microfluidizer with 10 passes at 15,000 psi. Five additional passes with the Microfluidizer at 15,000 psi were made to incorporate all 5 mg of the drug into 1 mL of pre-made liposome. Docetaxel was soluble and the formulation was transparent at 5 mg/mL. Docetaxel remained soluble, and the formulation was stable, upon dilution (1:10 in D5W) up to 48 hours as analyzed by a reverse phase high performance liquid chromatography method.
(§6) Hydrophobic or lipophilic compounds can be solubilized directly in sodium (or any ion) salt of fatty acid dissolved in an organic solvent. The organic solvent is subsequently removed using rotary evaporation, spray drying, or any other pharmaceutically acceptable processes. The drug-sodium salt of fatty acid mixture is subsequently dispersed in water, isotonic glycerol, or any pharmaceutically acceptable isotonic solution to achieve a desired concentration of the solubilized compound. For example, docetaxel (5 mg/mL) was dissolved in 100 mM sodium oleate in 100% ethanol. Ethanol was completely evaporated using rotary evaporation at 20° C. The docetaxel-sodium oleate was reconstituted with Water For Injection (“WFI”) or 2.5% glycerol to provide 5 mg/mL, 10 mg/mL, or 20 mg/mL concentration of docetaxel.
(§7) 50 μl of Docetaxel in ethanol (100 mg/mL) was added to 1 mL of pre-made liposome containing 2 mM sodium oleate and 6% soy phosphatidyl choline, 10% trehalose and pH adjusted to 5-7 using Acetic acid, mixed using a VORTEX® and microfluidized using a Microfluidizer with 10 passes at 15,000 psi. Docetaxel was soluble and the formulation is transparent at 5 mg/mL. Docetaxel remained soluble, and the formulation was stable, upon dilution (1:10 in D5W) up to 48 hours as analyzed by a reverse phase high performance liquid chromatography method. […] The lyophilized product is reconstituted with water for injection at 5 mg, 10, or 20 mg/mL concentration, essentially free of organic solvent.

The conditions of data set [2]: cited from earlier work.
Data set [3] can be described thus: Stability of docetaxel formulations upon dilution (reverse phase HPLC) and after lyophilization. The format is physicochemical. As to conditions: for time docetaxel remained soluble and formulation stable upon dilution: RP-HPLC. As to the method: as §1, §2, §3, §4, §5, §6, §7
The nature of data set [4]: Incorporation of docetaxel into liposome. The format is physicochemical. As to the method: As provided herein, the sequence of the addition of docetaxel results in enhanced solubility of the docetaxel. The conventional method of incorporating a hydrophobic drug into liposome is by adding the drug to lipid before liposome preparation. See, e.g., Immordino, M. L. et al., Journal of Controlled Release, 2003, 91: 417-429. By the conventional process, the incorporation of the drug is only 0.3 to 0.7 mg/mL. When docetaxel is added after liposome preparation, the incorporation of docetaxel is increased from 0.3 mg/mL to 5 mg/mL, which is more than 10 fold increase in solubility of the drug in lipid alone.
In the conventional liposome preparation, the drug to lipid molar percent ratio is 4-6% with the incorporation of drug into liposome efficiency is only 56%. See Immordino, M. L. et al., Journal of Controlled Release, 2003, 91: 417-429.

The mark [5] stands for this setting: conventional liposome preparation (Immordino et al.).
Setting [6] is: docetaxel added to pre-made liposome.

The structures appear in SMILES notation. Like-named read-outs stand apart in the source and are kept apart here.

With `CC(=O)O[C@@]12CO[C@@H]1C[C@H](O)[C@@]1(C)C(=O)[C@H](O)C3=C(C)[C@@H](OC(=O)[C@H](O)[C@@H](NC(=O)OC(C)(C)C)c4ccccc4)C[C@@](O)([C@@H](OC(=O)c4ccccc4)[C@H]21)C3(C)C` [Docetaxel], the solubility in data set [1] (0.05 M sodium oleate solution, Example 7: 0.05 M sodium oleate, read-out: concentration at which docetaxel was soluble and formulation clear) stood at 5000 µg/mL; in data set [1] (1 M sodium caprylate solution, Example 8: 1 M sodium caprylate, read-out: concentration at which docetaxel was soluble and formulation clear), 2000 µg/mL; in data set [1] (1 M sodium linoleate solution, Example 9: 1 M sodium linoleate, read-out: concentration at which docetaxel was soluble and formulation clear), 7000 µg/mL; in data set [1] (Example 10: solid docetaxel in pre-made liposome, 2 mM sodium oleate, 6% soy phosphatidyl choline, 10% trehalose, pH 5-7, read-out: concentration at which docetaxel was soluble and formulation transparent), 5000 µg/mL; in data set [1] (oleic acid / ethanolamine dispersion in water for injection, Example 6: oleic acid, ethanolamine, water for injection, read-out: concentration at which docetaxel was soluble and formulation clear) it was 5000 µg/mL. In addition, the “concentration at which docetaxel was soluble and formulation transparent” value in data set [1] (Example 12: docetaxel in ethanol added to pre-made liposome, 2 mM sodium oleate, 6% soy phosphatidyl choline, 10% trehalose, pH 5-7) turned out to be 5000 µg/mL. Moreover, in data set [2] (setting [5]), the “drug to lipid molar percent ratio” value is 4-6%. The “efficiency of incorporation of drug into liposome” value in data set [2] (setting [5]) was 56%. Moreover, the “incorporation of the drug into liposome” value in data set [2] (conventional process: drug added to lipid before liposome preparation (Immordino et al.)) was 0.3 to 0.7 mg/mL. The “time docetaxel remained soluble and formulation stable upon dilution” value in data set [3] (Example 6: oleic acid/ethanolamine, dilution 1:10 in 2.5% glycerol) is listed as “up to 24 hours”; in data set [3] (Example 7: 0.05 M sodium oleate, dilution 1:10 in 2.5% glycerol), “up to 24 hours”; in data set [3] (Example 8: 1 M sodium caprylate, dilution 1:2 2.5% glycerol), “up to 24 hours”; in data set [3] (Example 9: 1 M sodium linoleate, dilution 1:10 2.5% glycerol), “up to 24 hours”; in data set [3] (Example 10: oleate liposome, dilution 1:10 in D5W), “up to 48 hours”; in data set [3] (Example 12: oleate liposome, dilution 1:10 in D5W) it was “up to 48 hours”. Also, in data set [3] (Example 11: docetaxel-sodium oleate reconstituted with WFI or 2.5% glycerol), the “time reconstituted docetaxel remained in solution” value is recorded as 2 hours, 4 hours, 6 hours, 8 hours or 24 hours. In addition, in data set [4] (docetaxel added after liposome preparation), the “incorporation of docetaxel into liposome” value came out at 5 mg/mL. Moreover, the “increase in solubility of the drug versus lipid alone” value in data set [4] (docetaxel added after liposome preparation vs 0.3 mg/mL) was “more than 10 fold”. In addition, the “drug to lipid molar ratio” value in data set [4] (setting [6]) was 8%. Further, the “efficiency of incorporation of docetaxel into liposome” value in data set [4] (setting [6]) was “about 100%”.
